The results in this text go back to patent US4318916A, “Antibiotic PS-5 and derivatives having β-lactamase inhibitory activity and production thereof” (Sanraku-Ocean Co., Ltd., priority 1977, dated 1982).

Converted amounts (≈) assume the structure as drawn. Where two headings read alike, the source gives them in different places.

The subject of data set [1] is Bacillus subtilis ATCC 6633. Put plainly: MIC by broth dilution (Table 8). The data set is classed as cell-based. Conditions: ATCC6633, 20 h, read-out: Minimum inhibitory concentration. The method, then: (§1) The MIC values of antibiotic PS-5 sodium salt were determined on various pathogenic microorganisms including resistant strains by the broth dilution method utilizing the BRAIN HEART INFUSION BROTH `Eiken` (EIKEN CHEMICAL CO., LTD.).
(§2) The antibiotic PS-5 sodium salt was dissolved in BRAIN HEART INFUSION BROTH `Eiken` (EIKEN CHEMICAL CO., LTD.) (pH 7.0) at concentration in the range of 5-50 μg/ml, from which appropriate dilution series were made in the same liquid medium. The microorganisms listed in Table 8 were cultivated for 18 hours in BRAIN HEART INFUSION BROTH `Eiken` at 28° C. and inoculated into the said dilution series of antibiotic PS-5 at a final inoculum size of 1×10^5 cells/ml. The cultures were allowed to stand at 35° C. for 20 hours, and then the growth of the microorganisms was read at each dilution of antibiotic PS-5. The minimum inhibitory concentration (MIC) represents the smallest concentration of the antibiotic PS-5 (sodium salt) where no propagation of the relevant microorganism was visually confirmed. As the controls, two known beta-lactam antibiotics, cephaloridine and cefoxitin were dissolved in brain heart infustion broth at pH 7.0 at concentrations ranging from 1 μg/ml to 100 μ g/ml and then diluted to make several dilution series in the above mentioned liquid medium. These samples were treated as described above for the MIC determinations.
(In broth dilution the organism is exposed to a series of concentrations in liquid medium.)

In data set [2] the test system is Streptococcus pyogenes NY-5. As to the kind of experiment: MIC by broth dilution (Table 8). The data set is classed as cell-based. To be noted: NY5, 20 h, read-out: Minimum inhibitory concentration. The method, then:
as §1, §2

For data set [3], the system named is Staphylococcus aureus Smith. Put plainly: MIC by broth dilution (Table 8). The data set is classed as cell-based. To be noted: 20 h, read-out: Minimum inhibitory concentration. The method, then:
as §1, §2

In data set [4] the test system is Staphylococcus aureus EDA 209 P. Put plainly: MIC by broth dilution (Table 8). To be noted: EDA209P, 20 h, read-out: Minimum inhibitory concentration. The data set is classed as cell-based. The method, then: as §1, §2
Data set [5] concerns Diplococcus pneumoniae Type III. As to the kind of experiment: MIC by broth dilution (Table 8). The data set is classed as cell-based. Conditions: Streptococcus pneumoniae, 20 h, read-out: Minimum inhibitory concentration. The method, then:
as §1, §2

Data set [6] has as its system Staphylococcus aureus Bx-1633. Put plainly: MIC by broth dilution (Table 8). The data set is classed as cell-based. To be noted: BX1633, 20 h, read-out: Minimum inhibitory concentration. The method, then:
as §1, §2

The subject of data set [7] is Enterobacter aerogenes E-19. As to the kind of experiment: MIC by broth dilution (Table 8). Conditions: Klebsiella aerogenes, E19, 20 h, betalactamase producer, read-out: Minimum inhibitory concentration. The data set is classed as cell-based. The method, then:
as §1
as §2, with “determinations. In addition to the MIC values of antibiotic PS-5, those of cephaloridine and cefoxitin are included for reference.” for “determinations.”

A further data set concerns Citrobacter freundii E-9. Put plainly: MIC by broth dilution (Table 8). The data set is classed as cell-based. To be noted: E9, 20 h, read-out: Minimum inhibitory concentration. The method, then:
as §1
as §2, with “determinations. In addition to the MIC values of antibiotic PS-5, those of cephaloridine and cefoxitin are included for reference.” for “determinations.”

The test system of a further data set is Proteus sp. P-22. Put plainly: MIC by broth dilution (Table 8). The data set is classed as cell-based. Conditions: 20 h, read-out: Minimum inhibitory concentration. The method, then:
as §1
as §2, with “determinations. In addition to the MIC values of antibiotic PS-5, those of cephaloridine and cefoxitin are included for reference.” for “determinations.”

Data set [8] concerns Enterobacter cloacae E-16. As to the kind of experiment: MIC by broth dilution (Table 8). The data set is classed as cell-based. Conditions: E16, 20 h, betalactamase producer, read-out: Minimum inhibitory concentration. The method, then:
as §1
as §2, with “determinations. In addition to the MIC values of antibiotic PS-5, those of cephaloridine and cefoxitin are included for reference.” for “determinations.”

The test system of the next data set is Enterobacter sp. E-8. Put plainly: MIC by broth dilution (Table 8). The data set is classed as cell-based. To be noted: SP.E8, 20 h, read-out: Minimum inhibitory concentration. The method, then:
as §1
as §2, with “determinations. In addition to the MIC values of antibiotic PS-5, those of cephaloridine and cefoxitin are included for reference.” for “determinations.”

The test system of data set [9] is Klebsiella pneumoniae K-2. As to the kind of experiment: MIC by broth dilution (Table 8). The data set is classed as cell-based. Conditions: K2, 20 h, betalactamase producer, read-out: Minimum inhibitory concentration. The method, then: as §1
as §2, with “determinations. In addition to the MIC values of antibiotic PS-5, those of cephaloridine and cefoxitin are included for reference.” for “determinations.”

In a further data set the test system is Serratia marcescens S-18. As to the kind of experiment: MIC by broth dilution (Table 8). Conditions: S18, 20 h, betalactamase producer, read-out: Minimum inhibitory concentration. The data set is classed as cell-based. The method, then: as §1
as §2, with “determinations. In addition to the MIC values of antibiotic PS-5, those of cephaloridine and cefoxitin are included for reference.” for “determinations.”

In data set [10] the test system is Alcaligenes faecalis B-326. Put plainly: MIC by broth dilution (Table 8). The data set is classed as cell-based. Conditions: B326, 20 h, read-out: Minimum inhibitory concentration. The method, then: as §1
as §2, with “determinations. In addition to the MIC values of antibiotic PS-5, those of cephaloridine and cefoxitin are included for reference.” for “determinations.”

For another data set, the system named is Proteus mirabilis P-6. Put plainly: MIC by broth dilution (Table 8). To be noted: P6, 20 h, resistant to kanamycin, gentamicin and tobramycin, read-out: Minimum inhibitory concentration. The data set is classed as cell-based. The method, then: as §1
as §2, with “determinations. In addition to the MIC values of antibiotic PS-5, those of cephaloridine and cefoxitin are included for reference.” for “determinations.”

Data set [11] concerns Staphylococcus aureus Russell. Put plainly: MIC by broth dilution (Table 8). The data set is classed as cell-based. To be noted: 20 h, read-out: Minimum inhibitory concentration. The method, then: as §1
as §2, with “determinations. In addition to the MIC values of antibiotic PS-5, those of cephaloridine and cefoxitin are included for reference.” for “determinations.”

Another data set has as its system Providencia sp. P-8. As to the kind of experiment: MIC by broth dilution (Table 8). The data set is classed as cell-based. To be noted: SP.P8, 20 h, resistant to kanamycin, gentamicin and tobramycin, read-out: Minimum inhibitory concentration. The method, then:
as §1
as §2, with “determinations. In addition to the MIC values of antibiotic PS-5, those of cephaloridine and cefoxitin are included for reference.” for “determinations.”

The subject of a further data set is Proteus vulgaris P-5. As to the kind of experiment: MIC by broth dilution (Table 8). The data set is classed as cell-based. To be noted: P5, 20 h, betalactamase producer, read-out: Minimum inhibitory concentration. The method, then: as §1
as §2, with “determinations. In addition to the MIC values of antibiotic PS-5, those of cephaloridine and cefoxitin are included for reference.” for “determinations.”

Another data set concerns Escherichia coli K 12. Put plainly: MIC by broth dilution (Table 8). To be noted: K12, 20 h, read-out: Minimum inhibitory concentration. The data set is classed as cell-based. The method, then: as §1
as §2, with “determinations. In addition to the MIC values of antibiotic PS-5, those of cephaloridine and cefoxitin are included for reference.” for “determinations.”

The subject of another data set is Proteus rettgeri P-7. As to the kind of experiment: MIC by broth dilution (Table 8). The data set is classed as cell-based. To be noted: Providencia rettgeri, P7, 20 h, resistant to gentamicin and tobramycin, read-out: Minimum inhibitory concentration. The method, then: as §1
as §2, with “determinations. In addition to the MIC values of antibiotic PS-5, those of cephaloridine and cefoxitin are included for reference.” for “determinations.”

In a further data set the test system is male ddy mice. The data set is classed as in vivo. To be noted: 500 mg/kg intraperitoneally. The method, then: An aqueous solution of the antibiotic PS-5 sodium salt was intraperitoneally administered to male ddy mice (Shizuoka) at the dose of 500 mg/kg.

As for `O=C(Cc1cccs1)N[C@@H]1C(=O)N2C(C(=O)[O-])=C(C[n+]3ccccc3)CS[C@H]12` [Cephaloridine, cephaloridine], the MIC in data set [1] (Bacillus subtilis) was found to be 0.031 µg/mL (≈ 0.0746 µM); in data set [2] (Streptococcus pyogenes), 0.008 µg/mL (≈ 0.0193 µM); in [3] (Staphylococcus aureus), 0.031 µg/mL (≈ 0.0746 µM); in [4] (Staphylococcus aureus) it was 0.031 µg/mL (≈ 0.0746 µM); in data set [5], 0.031 µg/mL (≈ 0.0746 µM); in data set [6] (Staphylococcus aureus), 0.031 µg/mL (≈ 0.0746 µM). The MIC in data set [7] is above 100 µg/mL; with Citrobacter freundii E-9 (Citrobacter freundii), above 100 µg/mL; with Proteus sp. P-22, above 100 µg/mL; in [8] it was above 100 µg/mL; in the data set with Enterobacter sp. E-8 (Enterobacter) it was 3.13 µg/mL (≈ 7.53 µM); in data set [9], 6.25 µg/mL (≈ 15 µM). The MIC with Serratia marcescens S-18 is above 100 µg/mL; in data set [10] (Alcaligenes faecalis), 6.25 µg/mL (≈ 15 µM); with Proteus mirabilis P-6, 12.5 µg/mL (≈ 30.1 µM); in data set [11] (Staphylococcus aureus) it was 0.125 µg/mL (≈ 0.301 µM); in the data set on Providencia sp. P-8, above 100 µg/mL; in the data set with Proteus vulgaris P-5, above 100 µg/mL. Also, the figures for the MIC in the data set with Escherichia coli K 12 (Escherichia coli) and in the data set on Proteus rettgeri P-7 were 2.5 µg/mL (≈ 6.02 µM) and 100 µg/mL (≈ 241 µM), respectively.
On to `CCC1C(=O)N2C(C(=O)O)=C(SCCNC(C)=O)CC12` (single isomer, unassigned) [Antibiotic PS-5], for which the “Deaths after intraperitoneal administration” value in the data set with male ddy mice is on record as “does not provoke any dead”. Besides, the MIC amounted to 0.16 µg/mL (≈ 0.536 µM) in data set [1] (Bacillus subtilis ATCC 6633); 0.08 µg/mL (≈ 0.268 µM) in data set [2] (Streptococcus pyogenes NY-5, 10% horse blood supplemented into the medium); 0.31 µg/mL in [3] (Staphylococcus aureus Smith, PS-5 as sodium salt); 0.16 µg/mL in [4] (Staphylococcus aureus EDA 209 P, PS-5 as sodium salt); 0.02 µg/mL (≈ 0.067 µM) in data set [5] (Diplococcus pneumoniae Type III, 10% horse blood supplemented into the medium); 0.16 µg/mL in [6] (Staphylococcus aureus Bx-1633, PS-5 as sodium salt). Further, the MIC is 6.25 µg/mL (≈ 20.9 µM) in [7]; 3.13 µg/mL (≈ 10.5 µM) with Citrobacter freundii E-9 (Citrobacter freundii E-9, betalactamase producer); 6.25 µg/mL (≈ 20.9 µM) in the data set on Proteus sp. P-22 (Proteus sp. P-22); 12.5 µg/mL (≈ 41.9 µM) in [8]; 3.13 µg/mL (≈ 10.5 µM) in the data set on Enterobacter sp. E-8 (Enterobacter sp. E-8, betalactamase producer); 3.13 µg/mL (≈ 10.5 µM) in [9]. The MIC in the data set with Serratia marcescens S-18 is 6.25 µg/mL (≈ 20.9 µM); in data set [10] (Alcaligenes faecalis B-326), 0.78 µg/mL (≈ 2.61 µM); with Proteus mirabilis P-6, 6.25 µg/mL (≈ 20.9 µM); in [11] (Staphylococcus aureus Russell, PS-5 as sodium salt), 0.31 µg/mL; in the data set on Providencia sp. P-8, 6.25 µg/mL (≈ 20.9 µM); in the data set with Proteus vulgaris P-5, 12.5 µg/mL (≈ 41.9 µM). The figures for the MIC with Escherichia coli K 12 (Escherichia coli K 12) and in the data set on Proteus rettgeri P-7 were 2.5 µg/mL (≈ 8.38 µM) and 3.13 µg/mL (≈ 10.5 µM), respectively.
Regarding `CCC1C(=O)N2C(C(=O)OC(c3ccccc3)(c3ccccc3)c3ccccc3)=C(SCCNC(C)=O)CC12` (single isomer, unassigned) [Trityl PS-5], the “Deaths after intraperitoneal administration” value with male ddy mice (listed as trityl ester of the antibiotic PS-5, 500 mg/kg) was “did not provoke any dead”; in the data set on male ddy mice (listed as trityl ester, 500 mg/kg), “does not provoke any dead”.
